# Laboratory results taken from ChEMBL document CHEMBL4673259, “Discovery of isoquinolinone and naphthyridinone-based inhibitors of poly(ADP-ribose) polymerase-1 (PARP1) as anticancer agents: Structure activity relationship and preclinical characterization” (Bioorg Med Chem, 2020).
# Activity calls are given as the source filed them. No cut-off for these calls is given here.
# What was measured:
# MCF7 = experiment: Cytotoxicity against human MCF7 cells harboring wild type BRCA at 1000 nM relative to control; format: cell-based; settings: mcf7, 1 µM
# MDA-MB-436 [1] = experiment: Cytotoxicity against human MDA-MB-436 cells assessed as inhibition of cell viability incubated for 14 days with three intermittent intervals by CellTiterGlo luminescence assay; settings: MDA-MB-436, 336 h
# CYP2B6 = CYP2B6 (Homo sapiens, UniProt P20813); experiment: Inhibition of CYP2B6 (unknown origin) at 10 uM relative to control; format: ADME
# [2] = target: 5-hydroxytryptamine receptor 2B (Homo sapiens) (UniProt P41595); experiment: Displacement of [3H]mesulergine from human recombinant 5-HT2B receptor at 10 uM incubated for 60 mins by radiometric scintillation analysis
# 5-hydroxytryptamine receptor 2B (Homo sapiens), sequence (P41595 whole entry): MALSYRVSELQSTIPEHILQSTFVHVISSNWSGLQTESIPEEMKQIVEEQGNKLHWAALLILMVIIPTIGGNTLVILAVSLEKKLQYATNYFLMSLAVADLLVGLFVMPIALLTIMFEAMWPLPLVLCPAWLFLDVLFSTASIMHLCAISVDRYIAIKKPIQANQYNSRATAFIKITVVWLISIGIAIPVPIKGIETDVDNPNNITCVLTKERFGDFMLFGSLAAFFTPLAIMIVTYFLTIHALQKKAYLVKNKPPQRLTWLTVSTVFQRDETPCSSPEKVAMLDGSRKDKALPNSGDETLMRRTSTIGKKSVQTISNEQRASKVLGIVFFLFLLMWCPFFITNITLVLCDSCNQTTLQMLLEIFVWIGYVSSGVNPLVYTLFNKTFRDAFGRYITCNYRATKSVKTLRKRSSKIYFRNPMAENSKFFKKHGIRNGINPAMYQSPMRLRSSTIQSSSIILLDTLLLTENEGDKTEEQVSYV
# [3] = target: Poly [ADP-ribose] polymerase tankyrase-1 (Homo sapiens, UniProt O95271); experiment: Inhibition of TNKS1 (unknown origin)
# Poly [ADP-ribose] polymerase tankyrase-1, sequence (O95271 whole entry): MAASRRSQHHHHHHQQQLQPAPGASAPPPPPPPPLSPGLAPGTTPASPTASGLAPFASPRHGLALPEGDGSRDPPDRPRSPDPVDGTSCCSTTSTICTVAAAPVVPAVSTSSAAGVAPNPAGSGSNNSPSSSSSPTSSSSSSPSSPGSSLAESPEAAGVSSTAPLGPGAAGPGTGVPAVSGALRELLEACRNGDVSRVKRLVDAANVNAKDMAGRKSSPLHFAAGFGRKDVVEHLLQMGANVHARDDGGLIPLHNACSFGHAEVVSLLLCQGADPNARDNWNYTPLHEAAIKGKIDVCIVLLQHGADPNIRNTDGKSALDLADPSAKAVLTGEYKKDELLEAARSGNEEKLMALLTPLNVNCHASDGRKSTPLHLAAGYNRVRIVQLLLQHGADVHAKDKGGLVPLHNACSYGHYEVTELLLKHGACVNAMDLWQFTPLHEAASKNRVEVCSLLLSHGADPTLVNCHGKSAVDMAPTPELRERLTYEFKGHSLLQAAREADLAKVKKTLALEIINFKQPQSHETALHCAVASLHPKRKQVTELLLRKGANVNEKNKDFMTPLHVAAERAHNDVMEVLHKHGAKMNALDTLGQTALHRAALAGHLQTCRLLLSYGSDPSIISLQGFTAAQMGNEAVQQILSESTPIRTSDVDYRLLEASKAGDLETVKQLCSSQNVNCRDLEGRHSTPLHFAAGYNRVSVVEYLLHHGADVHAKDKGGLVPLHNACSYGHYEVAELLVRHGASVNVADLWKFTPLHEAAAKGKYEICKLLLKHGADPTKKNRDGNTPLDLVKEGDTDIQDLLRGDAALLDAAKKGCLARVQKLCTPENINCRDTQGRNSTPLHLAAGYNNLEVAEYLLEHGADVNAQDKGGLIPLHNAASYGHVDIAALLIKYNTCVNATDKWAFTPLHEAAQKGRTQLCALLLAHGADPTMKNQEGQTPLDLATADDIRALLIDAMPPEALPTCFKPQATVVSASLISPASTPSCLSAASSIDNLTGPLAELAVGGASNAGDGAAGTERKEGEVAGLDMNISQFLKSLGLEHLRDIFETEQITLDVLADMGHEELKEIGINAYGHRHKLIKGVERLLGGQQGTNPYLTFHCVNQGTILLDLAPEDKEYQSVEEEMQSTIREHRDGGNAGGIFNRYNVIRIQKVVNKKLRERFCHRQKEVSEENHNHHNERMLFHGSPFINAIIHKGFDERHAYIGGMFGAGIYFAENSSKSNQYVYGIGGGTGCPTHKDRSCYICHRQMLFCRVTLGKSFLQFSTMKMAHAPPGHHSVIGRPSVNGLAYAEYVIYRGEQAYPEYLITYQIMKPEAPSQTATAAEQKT
# [4] = Cmax in BALB/c mouse at 10 mg/kg, po measured up to 24 hrs by LC-MS/MS analysis; format: ADME, organism-based; parameters: route oral, dose 10 mg/kg, time <=24; settings: in vivo
# [5] = Metabolic stability of the compound in mouse plasma measured up to 4 hrs; format: ADME, cell-free; settings: read-out: Stabilty
# [6] = Tmax in BALB/c mouse at 10 mg/kg, po measured up to 24 hrs by LC-MS/MS analysis; format: ADME, organism-based; settings: in vivo
# [7] = Clearance in BALB/c mouse at 1 mg/kg, iv measured up to 24 hrs by LC-MS/MS analysis; format: ADME, organism-based; settings: in vivo
# MDA-MB-436 [8] = experiment: Anticancer activity against human MDA-MB-436 cells harboring BRCA mutant xenografted in SCID/nude mouse assessed as tumor growth regression at 0.15 mg/kg, po bid and measured up to 5 weeks post-drug administration; format: functional; settings: MDA-MB-436, po, 840 h, time weeks <=5
# [9] = Toxicity against SCID/nude mouse xenografted with human MDA-MB-436 cells harboring BRCA mutant assessed as body weight loss at 0.15 mg/kg, po bid for 12 days co-administered with 35 mg/kg, po TMZ; format: organism-based; settings: in vivo, 288 h, time 12 day
# [10] = Metabolic stability of the compound in dog plasma measured up to 4 hrs; format: ADME, cell-free, Canis lupus familiaris; settings: read-out: Stabilty
# [11] = target: Poly [ADP-ribose] polymerase 1 (Homo sapiens, UniProt P09874); experiment: Inhibition of N-terminal GST-tagged human full length PARP1 (2 to 1041 residues) expressed in baculovirus infected Sf9 cells using histone mixture (H2A and H2B) and biotinylated NAD+ as substrate in presence of activated DNA incubated for 60 mins by chemiluminescence assay
# Poly [ADP-ribose] polymerase 1, sequence (P09874 whole entry, the tested form may be a part): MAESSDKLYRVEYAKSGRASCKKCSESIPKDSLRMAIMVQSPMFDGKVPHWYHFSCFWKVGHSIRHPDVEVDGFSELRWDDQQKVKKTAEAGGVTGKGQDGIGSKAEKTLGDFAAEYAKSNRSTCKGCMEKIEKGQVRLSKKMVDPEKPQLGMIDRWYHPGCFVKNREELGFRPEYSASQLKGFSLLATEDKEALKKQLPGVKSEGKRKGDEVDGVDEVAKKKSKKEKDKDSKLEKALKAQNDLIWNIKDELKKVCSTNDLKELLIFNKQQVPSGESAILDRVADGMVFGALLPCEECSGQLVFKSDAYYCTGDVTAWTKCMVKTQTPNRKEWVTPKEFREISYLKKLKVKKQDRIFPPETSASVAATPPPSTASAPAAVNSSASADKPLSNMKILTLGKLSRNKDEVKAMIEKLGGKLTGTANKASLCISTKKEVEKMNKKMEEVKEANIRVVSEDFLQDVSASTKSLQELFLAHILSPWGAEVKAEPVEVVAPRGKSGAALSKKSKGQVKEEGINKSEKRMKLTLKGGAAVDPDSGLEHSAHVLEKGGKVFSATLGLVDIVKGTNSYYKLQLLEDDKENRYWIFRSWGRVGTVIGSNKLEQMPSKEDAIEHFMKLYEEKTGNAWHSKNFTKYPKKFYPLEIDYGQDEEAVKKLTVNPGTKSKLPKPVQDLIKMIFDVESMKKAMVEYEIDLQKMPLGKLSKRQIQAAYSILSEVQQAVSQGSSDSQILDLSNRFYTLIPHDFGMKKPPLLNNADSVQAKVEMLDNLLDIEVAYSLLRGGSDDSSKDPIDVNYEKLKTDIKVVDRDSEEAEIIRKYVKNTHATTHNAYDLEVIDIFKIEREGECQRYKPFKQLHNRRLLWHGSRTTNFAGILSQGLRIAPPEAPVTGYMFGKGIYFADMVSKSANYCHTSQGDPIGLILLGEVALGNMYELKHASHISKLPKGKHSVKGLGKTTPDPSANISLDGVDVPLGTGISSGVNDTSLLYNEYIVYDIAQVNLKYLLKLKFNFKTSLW
# [12] = Toxicity against SCID/nude mouse xenografted with human SK-ES-1 cells harboring EWSF1 translocation assessed as body weight loss at 0.15 mg/kg, po bid for 12 days co-administered with 35 mg/kg, po TMZ; format: organism-based; settings: in vivo, 288 h, time 12 day
# [13] = Toxicity in rat assessed as NOAEL for respiratory effect; settings: in vivo
# [14] = Protein binding in dog plasma; format: ADME, cell-free, Canis lupus familiaris; settings: read-out: PPB (converted)
# CAPAN-1 [15] = experiment: Antitumor activity against human CAPAN1 cells xenografted in SCID/nude mouse assessed as tumor growth inhibition at 0.1 mg/kg, po bid measured up to 5 weeks post drug administration; format: functional; settings: CAPAN-1, po, 840 h, time weeks <=5
# [16] = Tmax in BALB/c mouse at 1 mg/kg, iv measured up to 24 hrs by LC-MS/MS analysis; format: ADME, organism-based; settings: in vivo
# [17] = Metabolic stability of the compound in rat plasma measured up to 4 hrs; format: ADME, cell-free; settings: read-out: Stabilty
# CYP1A2 = CYP1A2 (Homo sapiens, UniProt P05177); experiment: Inhibition of CYP1A2 (unknown origin) at 10 uM relative to control; format: ADME
# CYP1A2, sequence (P05177 whole entry): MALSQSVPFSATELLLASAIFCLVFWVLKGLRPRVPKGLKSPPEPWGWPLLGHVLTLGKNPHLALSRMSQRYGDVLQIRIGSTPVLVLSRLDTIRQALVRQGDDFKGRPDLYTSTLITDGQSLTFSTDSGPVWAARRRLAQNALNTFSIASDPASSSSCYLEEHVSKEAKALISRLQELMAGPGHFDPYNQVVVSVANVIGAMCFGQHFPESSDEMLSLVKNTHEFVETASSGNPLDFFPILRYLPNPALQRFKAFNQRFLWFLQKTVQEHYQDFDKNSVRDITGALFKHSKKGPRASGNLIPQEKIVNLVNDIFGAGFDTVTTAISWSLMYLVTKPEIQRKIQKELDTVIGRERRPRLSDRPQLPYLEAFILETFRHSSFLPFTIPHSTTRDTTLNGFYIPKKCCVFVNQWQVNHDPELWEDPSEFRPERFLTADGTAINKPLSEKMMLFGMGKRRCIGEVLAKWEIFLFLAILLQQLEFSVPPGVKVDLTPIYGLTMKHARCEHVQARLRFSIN
# CYP2C19 = CYP2C19 (Homo sapiens, UniProt P33261); experiment: Inhibition of CYP2C19 (unknown origin) at 10 uM relative to control; format: ADME
# CYP2C19, sequence (P33261 whole entry): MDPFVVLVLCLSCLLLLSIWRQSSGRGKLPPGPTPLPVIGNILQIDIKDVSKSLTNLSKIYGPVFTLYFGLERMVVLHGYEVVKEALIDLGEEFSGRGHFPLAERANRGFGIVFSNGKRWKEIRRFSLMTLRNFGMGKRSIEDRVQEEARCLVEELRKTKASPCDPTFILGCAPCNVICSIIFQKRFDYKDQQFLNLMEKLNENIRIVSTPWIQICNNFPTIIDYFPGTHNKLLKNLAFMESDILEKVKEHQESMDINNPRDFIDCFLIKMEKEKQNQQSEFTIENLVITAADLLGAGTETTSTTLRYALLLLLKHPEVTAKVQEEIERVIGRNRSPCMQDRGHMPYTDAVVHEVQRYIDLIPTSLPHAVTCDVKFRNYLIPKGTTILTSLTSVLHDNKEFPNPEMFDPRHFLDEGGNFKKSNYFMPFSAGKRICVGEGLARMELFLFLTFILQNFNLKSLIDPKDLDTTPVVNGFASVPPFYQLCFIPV
# CYP2C9 = CYP2C9 (Homo sapiens, UniProt P11712); experiment: Inhibition of CYP2C9 (unknown origin) at 10 uM relative to control; format: ADME
# CYP2C9, sequence (P11712 whole entry): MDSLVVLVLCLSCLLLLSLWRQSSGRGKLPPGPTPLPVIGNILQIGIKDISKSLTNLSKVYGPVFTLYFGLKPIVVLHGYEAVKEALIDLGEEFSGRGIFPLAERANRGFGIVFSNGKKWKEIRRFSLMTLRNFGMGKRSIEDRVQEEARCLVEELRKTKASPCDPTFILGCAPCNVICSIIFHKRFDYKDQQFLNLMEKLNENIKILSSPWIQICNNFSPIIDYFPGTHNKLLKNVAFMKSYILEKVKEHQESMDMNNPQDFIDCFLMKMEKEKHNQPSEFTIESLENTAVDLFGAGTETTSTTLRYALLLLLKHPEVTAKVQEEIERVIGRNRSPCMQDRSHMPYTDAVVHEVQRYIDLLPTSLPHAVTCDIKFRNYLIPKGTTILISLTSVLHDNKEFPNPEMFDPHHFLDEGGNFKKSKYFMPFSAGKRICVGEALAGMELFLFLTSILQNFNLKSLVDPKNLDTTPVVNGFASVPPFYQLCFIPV
# MDA-MB-436 [18] = experiment: Anticancer activity against human MDA-MB-436 cells harboring BRCA mutant xenografted in po dosed SCID/nude mouse assessed as tumor growth regression administered bid and measured up to 5 weeks post-drug administration; format: functional, organism-based; settings: dose 0.015-0.15 mg/kg, time weeks <=5
# MDA-MB-436 [19] = experiment: Anticancer activity against human MDA-MB-436 cells harboring BRCA mutant xenografted in SCID/nude mouse assessed as tumor growth regression at 0.015 mg/kg, po bid and measured up to 5 weeks post-drug administration; format: functional; settings: MDA-MB-436, po, 840 h, time weeks <=5
# HEK293 = experiment: Cytotoxicity against HEK293 cells at 1000 nM relative to control; format: cell-based; settings: human, hek293, 1 µM
# MDA-MB-436 [20] = experiment: Potentiation of anticancer activity against human MDA-MB-436 cells harboring BRCA mutant xenografted in SCID/nude mouse assessed as tumor growth inhibition at 0.15 mg/kg, po bid for 12 days co-administered with TMZ measured after drug administration cessation; format: functional, organism-based; settings: time 12.0 day
# [21] = Volume of distribution at steady state in BALB/c mouse at 1 mg/kg, iv measured up to 24 hrs by LC-MS/MS analysis; format: ADME, organism-based; settings: in vivo, read-out: Vdss
# MDA-MB-436 [22] = experiment: Cytotoxicity against human MDA-MB-436 cells assessed as inhibition of cell viability incubated for 4 days by CellTiterGlo luminescence assay; settings: MDA-MB-436, 96 h
# CYP2E1 = CYP2E1 (Homo sapiens, UniProt P05181); experiment: Inhibition of CYP2E1 (unknown origin) at 10 uM relative to control; format: ADME
# CYP2E1, sequence (P05181 whole entry): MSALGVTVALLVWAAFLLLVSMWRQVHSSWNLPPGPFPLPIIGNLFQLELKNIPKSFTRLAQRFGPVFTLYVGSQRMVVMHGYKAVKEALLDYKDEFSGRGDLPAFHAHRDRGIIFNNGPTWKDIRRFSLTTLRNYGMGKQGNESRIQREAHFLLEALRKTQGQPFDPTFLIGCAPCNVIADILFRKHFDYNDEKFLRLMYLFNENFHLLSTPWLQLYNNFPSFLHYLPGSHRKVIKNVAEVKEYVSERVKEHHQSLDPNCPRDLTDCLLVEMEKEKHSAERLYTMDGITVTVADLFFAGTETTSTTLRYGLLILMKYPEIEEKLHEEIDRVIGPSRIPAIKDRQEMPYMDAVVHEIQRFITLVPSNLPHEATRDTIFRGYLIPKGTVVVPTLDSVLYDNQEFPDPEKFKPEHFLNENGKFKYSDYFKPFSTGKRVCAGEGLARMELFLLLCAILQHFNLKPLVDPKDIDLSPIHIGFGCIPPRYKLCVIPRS
# [23] = target: Protein mono-ADP-ribosyltransferase PARP3 (Homo sapiens, UniProt Q9Y6F1); experiment: Inhibition of PARP3 (unknown origin)
# [24] = Toxicity in rat assessed as NOAEL for CNS effect; settings: in vivo
# CYP3A4 = CYP3A4 (Homo sapiens, UniProt P08684); experiment: Inhibition of CYP3A4 (unknown origin) at 10 uM relative to control; format: ADME
# [25] = target: Mitogen-activated protein kinase kinase kinase 14 (Homo sapiens) (UniProt Q99558); experiment: Inhibition of NIK (unknown origin) at 10 uM
# [26] = Protein binding in rat plasma; format: ADME, cell-free; settings: read-out: PPB (converted)
# CAPAN-1 [27] = experiment: Potentiation of anticancer activity against human CAPAN-1 cells harboring BRCA mutant xenografted in SCID/nude mouse assessed as tumor growth inhibition at 0.15 mg/kg, po bid for 12 days co-administered with TMZ measured up to 9 weeks post-drug administration; format: functional; settings: CAPAN-1, po, 288 h, time 12 day
# SK-ES1 = experiment: Potentiation of anticancer activity against human SK-ES-1 cells harboring EWSF1 translocation xenografted in SCID/nude mouse assessed as tumor growth inhibition at 0.15 mg/kg, po bid for 12 days co-administered with TMZ measured up to 9 weeks post drug administration; format: functional; settings: 288 h, time 12 day
# MDA-MB-436 [28] = experiment: Potentiation of anticancer activity against human MDA-MB-436 cells harboring BRCA mutant xenografted in SCID/nude mouse assessed as tumor growth inhibition at 0.15 mg/kg, po bid for 12 days co-administered with […] measured up to 9 weeks post drug administration; format: functional; settings: MDA-MB-436, po, time weeks <=9
structure (smiles),measurement,setting,value
N#Cc1ccc(N2CCN([C@H]3C=C(c4cc5ncccc5c(=O)[nH]4)CC3)CC2)cc1,Activity,MCF7,36%
same,IC50,MDA-MB-436 [1],0.0008 nM
same,inhibition at 10 µM,CYP2B6,≤ 23%
same,Activity,[2],70%
same,IC50,[3],769 nM
same,Cmax,[4],31 µM
same,remaining at 4 h,[5],80%
same,Tmax,[6],60 min
same,clearance,[7],0.4 mL/min/kg
same,inhibition in vivo at 0.15 mg/kg,MDA-MB-436 [8],79%
same,Activity,[9],Non-Toxic
same,remaining at 4 h,[10],80%
same,IC50,[11],1.1 nM
same,Activity,[12],Non-Toxic
same,NOAEL,[13],30 mg/kg/day
same,fraction unbound,[14],0.125
same,inhibition in vivo at 0.1 mg/kg,CAPAN-1 [15],46.1%
same,Tmax,[16],4.8 min
same,remaining at 4 h,[17],80%
same,inhibition at 10 µM,CYP1A2,≤ 23%
same,inhibition at 10 µM,CYP2C19,≤ 23%
same,inhibition at 10 µM,CYP2C9,≤ 23%
same,Activity,MDA-MB-436 [18],Dose-dependent effect
same,inhibition in vivo at 0.015 mg/kg,MDA-MB-436 [19],50%
same,Activity,HEK293,72%
same,Activity,MDA-MB-436 [20],Active
same,Vd,[21],0.2 L/kg
same,IC50,MDA-MB-436 [22],0.035 nM
same,inhibition at 10 µM,CYP2E1,≤ 23%
same,IC50,[23],8000 nM
same,NOAEL,[24],30 mg/kg/day
same,inhibition at 10 µM,CYP3A4,≤ 23%
same,inhibition,[25],65%
same,fraction unbound,[26],0.056
same,inhibition in vivo at 0.15 mg/kg,CAPAN-1 [27],88%
same,inhibition in vivo at 0.15 mg/kg,SK-ES1,89%
same,inhibition in vivo at 0.15 mg/kg,MDA-MB-436 [28],> 90%
